Measurements from EPA's ToxRefDB 2.

Tests used:
rat [1] = settings: Combined chronic toxicity/carcinogenicity, sprague dawley, Inhalation, Whole-Body, dose end: 2 year, group: systemic
rat [2] = settings: Prenatal developmental toxicity study; long evans; Inhalation; Whole-Body; dose end: 15 GD; group: developmental; systemic / in life observation / body weight / fetal weight
rat [3] = settings: Prenatal developmental toxicity study, sprague dawley, Dermal, Topical, dose end: 15 GD
rat [4] = settings: Subchronic inhalation toxicity, fischer, Whole-Body, dose end: 12 week, group: systemic
rat [5] = settings: Subchronic inhalation toxicity, fischer, Whole-Body, dose end: 13 week, group: systemic
mouse = settings: Subchronic oral toxicity in rodents, cd1, Feed, dose end: 119 day, group: systemic
rat [6] = settings: Prenatal developmental toxicity study, sprague dawley, Oral, Gavage/Intubation, dose end: 20 GD
rat [7] = settings: Prenatal developmental toxicity study, sprague dawley, Inhalation, Whole-Body, dose end: 15 GD
[8] = systemic / organ weight / liver / relative to body weight + systemic / pathology microscopic / liver / clear cell focus + systemic / …
[9] = group: developmental, developmental / developmental malformation / general / [other] + developmental / developmental malformation / general / crown-rump length
[10] = group: maternal, systemic / organ weight / placenta / absolute
[11] = group: maternal, systemic / organ weight / placenta / absolute + systemic / in life observation / body weight / body weight gain + systemic / in life …
[12] = systemic / clinical chemistry / alanine aminotransferase (alt/sgpt) / alanine aminotransferase (alt/sgpt) + systemic / clinical chemistry / …
[13] = systemic / hematology / erythrocyte (rbc) count differential / erythrocyte (rbc) + systemic / hematology / mean corpuscular (cell) volume (…
[14] = systemic / organ weight / liver / absolute + systemic / organ weight / liver / relative to body weight + systemic / pathology microscopic / …
[15] = group: developmental, developmental / developmental malformation / bone / incomplete ossification + systemic / in life observation / body weight / fetal weight
[16] = group: developmental, systemic / in life observation / body weight / fetal weight
[17] = group: maternal, systemic / in life observation / body weight / body weight gain + systemic / in life observation / food consumption / food consumption
[18] = group: maternal, systemic / in life observation / body weight / body weight gain

## CN(C)C=O [N,N-Dimethylformamide]
Rat [1]; [8]
  LOAEL: > 400 ppm
  NEL: 25 ppm
  NOAEL: ≥ 400 ppm
Rat [1]; systemic / organ weight / liver / relative to body weight + systemic / pathology microscopic / liver / hypertrophy + systemic / clinical …
  LEL: 100 ppm
Rat [2]
  LEL: 172 ppm
  LOAEL: > 172 ppm
  NEL: 18 ppm
  NOAEL: ≥ 172 ppm
Rat [3]; [9]
  LEL: 944 mg/kg/day
  LOAEL: > 944 mg/kg/day
  NEL: 472 mg/kg/day
  NOAEL: ≥ 944 mg/kg/day
Rat [3]; [10]
  LEL: 94 mg/kg/day
  NEL: < 94 mg/kg/day
Rat [3]; [11]
  LOAEL: > 944 mg/kg/day
  NOAEL: ≥ 944 mg/kg/day
Rat [4]; [12]
  LOAEL: > 1200 ppm
  NOAEL: ≥ 1200 ppm
Rat [4]; systemic / clinical chemistry / alkaline phosphatase (alp/alk) / alkaline phosphatase (alp/alk)
  LEL: 300 ppm
Rat [4]; systemic / clinical chemistry / alkaline phosphatase (alp/alk) / alkaline phosphatase (alp/alk) + systemic / clinical chemistry / aspartate …
  NEL: 150 ppm
Rat [5]; [12]
  LOAEL: > 800 ppm
  NOAEL: ≥ 800 ppm
Rat [5]; [13]
  LEL: 50 ppm
  NEL: < 50 ppm
mouse; [14]
  LOAEL: > 246 mg/kg/day
  NOAEL: ≥ 246 mg/kg/day
mouse; systemic / organ weight / liver / relative to body weight
  LEL: 96 mg/kg/day
mouse; systemic / organ weight / liver / relative to body weight + systemic / clinical chemistry / alanine aminotransferase (alt/sgpt) / alanine …
  NEL: 28 mg/kg/day
Rat [6]; [15]
  LOAEL: > 300 mg/kg/day
  NEL: 50 mg/kg/day
  NOAEL: ≥ 300 mg/kg/day
Rat [6]; [16]
  LEL: 100 mg/kg/day
Rat [6]; [17]
  LEL: 100 mg/kg/day
  LOAEL: > 300 mg/kg/day
  NEL: 50 mg/kg/day
  NOAEL: ≥ 300 mg/kg/day
Rat [7]; [16]
  LEL: 300 ppm
  LOAEL: > 300 ppm
  NEL: 30 ppm
  NOAEL: ≥ 300 ppm
Rat [7]; [18]
  LEL: 300 ppm
  LOAEL: > 300 ppm
  NEL: 30 ppm
  NOAEL: ≥ 300 ppm
